According to ChEMBL document CHEMBL1132622, “Synthesis, structure-activity relationships, and in vivo evaluations of substituted di-tert-butylphenols as a novel class of potent, selective, and orally active cyclooxygenase-2 inhibitors. 2. 1,3,4- and 1,2,4-thiadiazole series” (J Med Chem, 1999):

The molecules below were run against T1, Prostaglandin G/H synthase 2 (Homo sapiens, UniProt P35354) (assay: Inhibition of recombinant human prostaglandin G/H synthase 2 (COX-2)).
T1 sequence (P35354 whole entry): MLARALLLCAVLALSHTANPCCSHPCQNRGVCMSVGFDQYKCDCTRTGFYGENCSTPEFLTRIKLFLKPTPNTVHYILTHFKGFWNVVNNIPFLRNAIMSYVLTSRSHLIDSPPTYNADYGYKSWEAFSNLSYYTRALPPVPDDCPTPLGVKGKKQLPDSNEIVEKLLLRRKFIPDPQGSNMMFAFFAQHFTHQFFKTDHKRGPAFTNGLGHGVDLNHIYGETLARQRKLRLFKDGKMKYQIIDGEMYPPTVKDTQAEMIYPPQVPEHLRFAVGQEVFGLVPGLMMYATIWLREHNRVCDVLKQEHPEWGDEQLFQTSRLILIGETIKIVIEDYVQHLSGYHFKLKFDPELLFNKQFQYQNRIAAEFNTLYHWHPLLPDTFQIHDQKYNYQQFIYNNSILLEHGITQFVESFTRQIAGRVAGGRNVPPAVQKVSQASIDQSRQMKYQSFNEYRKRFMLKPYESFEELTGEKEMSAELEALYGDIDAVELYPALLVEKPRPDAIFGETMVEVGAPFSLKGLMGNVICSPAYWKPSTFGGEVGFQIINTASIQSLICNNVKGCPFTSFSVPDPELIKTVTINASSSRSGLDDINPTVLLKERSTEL

IC50 [µM] | Compound
19 | CCN(CC)CCSc1nnc(-c2cc(C(C)(C)C)c(O)c(C(C)(C)C)c2)s1
> 20 | CC[S+]([O-])c1nnc(-c2cc(C(C)(C)C)c(O)c(C(C)(C)C)c2)s1 (stereo unspecified)
> 20 | CC(C)(C)c1cc(-c2nnc(O)s2)cc(C(C)(C)C)c1O
> 20 | CC(=O)Nc1nc(-c2cc(C(C)(C)C)c(O)c(C(C)(C)C)c2)ns1
> 20 | CCCSc1nnc(-c2cc(C(C)C)c(O)c(C(C)C)c2)s1
17 | CC(C)(C)c1cc(-c2nnc(N=C(N)N)s2)cc(C(C)(C)C)c1O
> 20 | CC(C)(C)c1cc(-c2nnc(O)o2)cc(C(C)(C)C)c1O
47 | CC(C)(C)c1cc(-c2nnc(S)o2)cc(C(C)(C)C)c1O
100 | COc1nc(-c2cc(C(C)(C)C)c(O)c(C(C)(C)C)c2)ns1
> 20 | CCCOc1nnc(-c2cc(C(C)(C)C)c(O)c(C(C)(C)C)c2)s1
> 20 | COC(=O)CCSc1nnc(-c2cc(C(C)(C)C)c(O)c(C(C)(C)C)c2)s1
> 20 | CC(C)(C)c1cc(-c2nnc(SCC(F)(F)F)s2)cc(C(C)(C)C)c1O
3 | COc1nnc(-c2cc(C(C)(C)C)c(O)c(C(C)(C)C)c2)s1
> 20 | CC(C)(C)c1cc(-c2nnc(SCCC(=O)O)s2)cc(C(C)(C)C)c1O
100 | CCCSc1nnc(-c2cc(C(C)(C)C)c(O)c(C(C)(C)C)c2)s1
> 20 | CC(C)(C)c1cc(-c2nsc(N)n2)cc(C(C)(C)C)c1O
0.14 | CCSc1nnc(-c2cc(C(C)(C)C)c(O)c(C(C)(C)C)c2)s1
1.1 | CC(C)(C)c1cc(-c2nc(=O)s[nH]2)cc(C(C)(C)C)c1O
11 | CC(C)(C)c1cc(-c2nnc(NC#N)o2)cc(C(C)(C)C)c1O
1.3 | CC(C)(C)c1cc(-c2nnc(NN)s2)cc(C(C)(C)C)c1O
> 20 | CC(C)Oc1nnc(-c2cc(C(C)(C)C)c(O)c(C(C)(C)C)c2)s1

The molecules below were run against T2, Prostaglandin G/H synthase 2 (Mus musculus, UniProt Q05769) (assay: IC50 value against Prostaglandin G/H synthase 2 of murine J774A.1 cell line).
T2 sequence (Q05769 whole entry): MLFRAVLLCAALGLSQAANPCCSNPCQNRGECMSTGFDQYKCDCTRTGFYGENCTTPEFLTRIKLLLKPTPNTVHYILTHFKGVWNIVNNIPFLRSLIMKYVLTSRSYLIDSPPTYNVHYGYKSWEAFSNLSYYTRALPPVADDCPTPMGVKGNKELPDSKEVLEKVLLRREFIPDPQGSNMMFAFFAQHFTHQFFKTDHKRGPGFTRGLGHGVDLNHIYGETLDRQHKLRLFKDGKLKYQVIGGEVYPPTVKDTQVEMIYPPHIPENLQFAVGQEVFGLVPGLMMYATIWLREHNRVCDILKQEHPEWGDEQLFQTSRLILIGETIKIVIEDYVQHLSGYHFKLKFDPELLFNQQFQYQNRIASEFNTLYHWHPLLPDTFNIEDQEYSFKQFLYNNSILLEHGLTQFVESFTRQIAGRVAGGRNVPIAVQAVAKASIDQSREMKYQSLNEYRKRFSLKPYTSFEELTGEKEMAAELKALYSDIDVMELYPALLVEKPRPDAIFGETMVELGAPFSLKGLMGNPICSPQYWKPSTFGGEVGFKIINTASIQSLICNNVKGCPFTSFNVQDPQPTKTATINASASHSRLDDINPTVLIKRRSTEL

IC50 | Compound
Not Active | CCCOc1nnc(-c2cc(C(C)(C)C)c(O)c(C(C)(C)C)c2)s1
Not Active | COC(=O)CCSc1nnc(-c2cc(C(C)(C)C)c(O)c(C(C)(C)C)c2)s1
Not Active | CC(C)(C)c1cc(-c2nnc(SCC(F)(F)F)s2)cc(C(C)(C)C)c1O
Not Active | CC(C)(C)c1cc(-c2nnc(SCCC(=O)O)s2)cc(C(C)(C)C)c1O
Not Active | CCCSc1nnc(-c2cc(C(C)(C)C)c(O)c(C(C)(C)C)c2)s1
Not Active | CC(C)Oc1nnc(-c2cc(C(C)(C)C)c(O)c(C(C)(C)C)c2)s1

Each molecule was assayed against T3, Prostaglandin G/H synthase 1 (Ovis aries, UniProt P05979) (assay: IC50 value against ovine Prostaglandin G/H synthase 1).
T3 sequence (P05979 whole entry): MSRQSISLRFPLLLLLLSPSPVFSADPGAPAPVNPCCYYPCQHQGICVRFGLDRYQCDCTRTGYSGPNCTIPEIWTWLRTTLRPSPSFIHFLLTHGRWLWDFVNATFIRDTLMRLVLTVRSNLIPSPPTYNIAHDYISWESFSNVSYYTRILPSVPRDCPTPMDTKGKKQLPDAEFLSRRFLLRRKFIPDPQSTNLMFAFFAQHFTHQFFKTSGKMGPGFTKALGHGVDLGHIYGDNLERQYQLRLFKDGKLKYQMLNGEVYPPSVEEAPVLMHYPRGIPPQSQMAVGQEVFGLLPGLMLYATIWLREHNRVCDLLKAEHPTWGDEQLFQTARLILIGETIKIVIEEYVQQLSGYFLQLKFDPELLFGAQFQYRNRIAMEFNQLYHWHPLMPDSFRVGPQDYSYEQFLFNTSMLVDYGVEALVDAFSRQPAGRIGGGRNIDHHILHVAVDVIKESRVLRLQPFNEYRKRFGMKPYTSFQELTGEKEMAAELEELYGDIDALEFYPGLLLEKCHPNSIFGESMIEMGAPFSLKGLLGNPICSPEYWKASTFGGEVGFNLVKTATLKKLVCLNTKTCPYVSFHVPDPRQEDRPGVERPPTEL

IC50 [µM] | Compound
> 20 | CCN(CC)CCSc1nnc(-c2cc(C(C)(C)C)c(O)c(C(C)(C)C)c2)s1
> 20 | CC[S+]([O-])c1nnc(-c2cc(C(C)(C)C)c(O)c(C(C)(C)C)c2)s1 (stereo unspecified)
> 20 | CC(C)(C)c1cc(-c2nnc(O)s2)cc(C(C)(C)C)c1O
> 20 | CC(=O)Nc1nc(-c2cc(C(C)(C)C)c(O)c(C(C)(C)C)c2)ns1
> 20 | CCCSc1nnc(-c2cc(C(C)C)c(O)c(C(C)C)c2)s1
88 | CC(C)(C)c1cc(-c2nnc(N=C(N)N)s2)cc(C(C)(C)C)c1O
> 20 | CC(C)(C)c1cc(-c2nnc(O)o2)cc(C(C)(C)C)c1O
> 20 | CC(C)(C)c1cc(-c2nnc(S)o2)cc(C(C)(C)C)c1O
24 | COc1nc(-c2cc(C(C)(C)C)c(O)c(C(C)(C)C)c2)ns1
> 20 | CCCOc1nnc(-c2cc(C(C)(C)C)c(O)c(C(C)(C)C)c2)s1
> 20 | COC(=O)CCSc1nnc(-c2cc(C(C)(C)C)c(O)c(C(C)(C)C)c2)s1
> 20 | CC(C)(C)c1cc(-c2nnc(SCC(F)(F)F)s2)cc(C(C)(C)C)c1O
2.6 | COc1nnc(-c2cc(C(C)(C)C)c(O)c(C(C)(C)C)c2)s1
> 20 | CC(C)(C)c1cc(-c2nnc(SCCC(=O)O)s2)cc(C(C)(C)C)c1O
> 20 | CCCSc1nnc(-c2cc(C(C)(C)C)c(O)c(C(C)(C)C)c2)s1
> 20 | CC(C)(C)c1cc(-c2nsc(N)n2)cc(C(C)(C)C)c1O
100 | CCSc1nnc(-c2cc(C(C)(C)C)c(O)c(C(C)(C)C)c2)s1
83 | CC(C)(C)c1cc(-c2nc(=O)s[nH]2)cc(C(C)(C)C)c1O
17 | CC(C)(C)c1cc(-c2nnc(NN)s2)cc(C(C)(C)C)c1O
> 20 | CC(C)Oc1nnc(-c2cc(C(C)(C)C)c(O)c(C(C)(C)C)c2)s1

These molecules were tested against Prostaglandin G/H synthase 1 (Homo sapiens, UniProt P23219) (assay: IC50 value against Prostaglandin G/H synthase 1 of human platelet rich plasma).
Assay type: cell-free; call rule not given here

Sequence of Prostaglandin G/H synthase 1 (Homo sapiens, UniProt P23219) (P23219 whole entry): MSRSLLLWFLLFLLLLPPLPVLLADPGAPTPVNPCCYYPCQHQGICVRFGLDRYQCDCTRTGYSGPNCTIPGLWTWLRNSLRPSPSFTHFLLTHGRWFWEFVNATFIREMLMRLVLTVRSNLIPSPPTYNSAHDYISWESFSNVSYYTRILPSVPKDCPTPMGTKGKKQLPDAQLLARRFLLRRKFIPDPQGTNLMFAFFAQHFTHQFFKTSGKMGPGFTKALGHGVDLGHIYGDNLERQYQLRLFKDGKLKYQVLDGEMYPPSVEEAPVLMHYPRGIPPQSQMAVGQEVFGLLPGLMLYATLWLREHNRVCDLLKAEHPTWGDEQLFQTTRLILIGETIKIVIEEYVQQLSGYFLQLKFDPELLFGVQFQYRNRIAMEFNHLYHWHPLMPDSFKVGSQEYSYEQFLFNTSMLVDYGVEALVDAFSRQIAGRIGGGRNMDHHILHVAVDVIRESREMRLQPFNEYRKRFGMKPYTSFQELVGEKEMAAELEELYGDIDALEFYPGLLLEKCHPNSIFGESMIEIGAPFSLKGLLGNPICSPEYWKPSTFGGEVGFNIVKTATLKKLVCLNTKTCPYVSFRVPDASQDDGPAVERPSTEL

IC50 [µM] | Compound
> 20 | CCN(CC)CCSc1nnc(-c2cc(C(C)(C)C)c(O)c(C(C)(C)C)c2)s1
14.6 | CC[S+]([O-])c1nnc(-c2cc(C(C)(C)C)c(O)c(C(C)(C)C)c2)s1 (stereo unspecified)
4.1 | CC(C)(C)c1cc(-c2nnc(O)s2)cc(C(C)(C)C)c1O
> 20 | CCCSc1nnc(-c2cc(C(C)C)c(O)c(C(C)C)c2)s1
2.8 | CC(C)(C)c1cc(-c2nnc(N=C(N)N)s2)cc(C(C)(C)C)c1O
3.2 | CC(C)(C)c1cc(-c2nnc(O)o2)cc(C(C)(C)C)c1O
> 20 | CC(C)(C)c1cc(-c2nnc(S)o2)cc(C(C)(C)C)c1O
3.6 | CCCOc1nnc(-c2cc(C(C)(C)C)c(O)c(C(C)(C)C)c2)s1
9.9 | COC(=O)CCSc1nnc(-c2cc(C(C)(C)C)c(O)c(C(C)(C)C)c2)s1
> 20 | CC(C)(C)c1cc(-c2nnc(SCC(F)(F)F)s2)cc(C(C)(C)C)c1O
0.2 | COc1nnc(-c2cc(C(C)(C)C)c(O)c(C(C)(C)C)c2)s1
> 20 | CC(C)(C)c1cc(-c2nnc(SCCC(=O)O)s2)cc(C(C)(C)C)c1O
4.1 | CCCSc1nnc(-c2cc(C(C)(C)C)c(O)c(C(C)(C)C)c2)s1
3.1 | CCSc1nnc(-c2cc(C(C)(C)C)c(O)c(C(C)(C)C)c2)s1
0.43 | CC(C)(C)c1cc(-c2nc(=O)s[nH]2)cc(C(C)(C)C)c1O
5.8 | CC(C)(C)c1cc(-c2nnc(NC#N)o2)cc(C(C)(C)C)c1O
3.2 | CC(C)(C)c1cc(-c2nnc(NN)s2)cc(C(C)(C)C)c1O
4.5 | CC(C)Oc1nnc(-c2cc(C(C)(C)C)c(O)c(C(C)(C)C)c2)s1

Each molecule was assayed against T2, Prostaglandin G/H synthase 2.

IC50 [µM] | Compound
> 20 | CCN(CC)CCSc1nnc(-c2cc(C(C)(C)C)c(O)c(C(C)(C)C)c2)s1
0.23 | CC[S+]([O-])c1nnc(-c2cc(C(C)(C)C)c(O)c(C(C)(C)C)c2)s1 (stereo unspecified)
0.24 | CC(C)(C)c1cc(-c2nnc(O)s2)cc(C(C)(C)C)c1O
1.5 | CCCSc1nnc(-c2cc(C(C)C)c(O)c(C(C)C)c2)s1
0.21 | CC(C)(C)c1cc(-c2nnc(N=C(N)N)s2)cc(C(C)(C)C)c1O
> 20 | CC(C)(C)c1cc(-c2nnc(O)o2)cc(C(C)(C)C)c1O
0.92 | CC(C)(C)c1cc(-c2nnc(S)o2)cc(C(C)(C)C)c1O
0.18 | CCSc1nnc(-c2cc(C(C)(C)C)c(O)c(C(C)(C)C)c2)s1
0.018 | CC(C)(C)c1cc(-c2nc(=O)s[nH]2)cc(C(C)(C)C)c1O
0.39 | CC(C)(C)c1cc(-c2nnc(NC#N)o2)cc(C(C)(C)C)c1O
3.7 | CC(C)(C)c1cc(-c2nnc(NN)s2)cc(C(C)(C)C)c1O
